# Test results: patent US20260048145A1, “COMPOSITIONS AND METHODS FOR TREATING DRUG ADDICTION” (The Children's Medical Center Corporation, priority 2022, published 2026)
# B1: Tac2-shRNA: AAV construct expressing small hairpin RNA for mouse Tac2 gene (SEQ ID NO: 3, 4) (nucleic acid, listed as Mus musculus)
# sense: GATCCGCCGCCTCAACCCCATAGCAATTAGAAGCTTGTAATTGCTATGGGGTTGAGGCTTTTTTT
# Legend:
# NAc Tac2+ neurons [1] = assay: Single-cell calcium imaging of Tac2+ neurons following acute cocaine injection; type: in vivo, mice; settings: for recorded Tac2+ neurons showing decreased activity / recorded Tac2+ neurons showing increased activity: cocaine 15 mg/kg i.p.
# Excerpt: To explore a potential role for Tac2^+ neurons in drug-related behavior, Tac2 neuronal activity was monitored using single-cell calcium imaging upon psychostimulant drug (cocaine) treatment. To this end, GCaMP6m, which reports calcium fluctuations and serves as a proxy for neuronal activity, was virally delivered into the NAc of Tac2-Cre mice using known techniques^41, and the fluorescence signal was monitored by a skull-attached miniaturized microscope through a gradient-index (GRIN) lens implanted above the virus injection site (FIG. 2B, FIGS. 1C-1D). […] After extracting calcium signal traces and corresponding calcium signal transients of individual neurons from raw imaging video (FIG. 2C, FIG. 1E), the Tac2 neuronal response to saline and cocaine administration was analyzed. The calcium transient frequency from 6 mice (saline: 361 neurons, cocaine 356 neurons) were sorted and presented as heatmaps (FIG. 2D). […] The neuronal activity of cocaine excited/inhibited Tac2^+ neurons in the initial phase were substantially altered following cocaine injection and later partially recovered in the decay phase (FIG. 2I). To further validate these findings, calcium activity traces were analyzed before and after saline or cocaine injection. 3.0-fold more cocaine inhibited neurons than cocaine excited neurons in the initial phase (FIGS. 1F-1H).
# Two weeks after GRIN lens implantation surgery, a baseplate was implanted to mount the miniature microscope and to check the fluorescence signal. Freely moving in vivo imaging can be performed after the nVoke microscope (Inscopix) is attached to the fixed baseplate. All recordings were made at 10 frames per second, LED intensities were 0.6˜1.2 mW, and gain (1.5×) was used. The calcium traces were extracted using Inscopix Data Processing Software (version 1.6, Inscopix). The raw recording videos were cropped, spatially down-sampled (2×), spatially filtered (cut-offs: low 0.005 pixel^−1, high 0.500 pixel^−1), and motion-corrected (using a reference frame from the input movie). The spatial location of individual neurons and their associated calcium activity signals were identified using the extended constrained non-negative matrix factorization (CNMF-E) CNMF-c algorithm^53,54 and outputted temporal traces as dF over noise. The identified neurons were manually checked to exclude overlapping neurons, blood vessels, or fluorescent debris moving in and out of focus. The calcium signal traces were further deconvolved using OASIS (online active set method to infer spikes) methods to estimate underlying calcium signal transients. The data matrix containing calcium signal traces and calcium signal transients were subjected to custom MATLAB code for further analysis.
# Mice were tested in the homecages and were pre-habituated in the test room and they received 3-day saline injection to reduce stress. On day 1, mice were attached with nVoke microscope 30 minutes before experiment. Prior to injection, 10 minute baseline was recorded, then mice were intraperitoneally injected with saline, and a 10 minute recording was performed after the injection. On day 2, mice were again attached with n Voke microscope, and recorded for 10 minute baseline. Then mice were injected with cocaine (15 mg/kg) intraperitoneally. The post-injection initial phase (0-10 minutes) and decay phase (50-60 minutes) were recorded. Two data sets of neuronal activity were used: calcium signal traces over time or calcium signal transients over time, to analyze treatment (saline or cocaine injection) responsive neurons (excited or inhibited by treatment), 10-minute windows of pre- and post-injection were compared. For saline injection responsive neurons, saline (−10-0 minutes) and saline (0-10 minutes) responses of the two groups were compared. For cocaine injection responsive neurons, the initial phase (0-10 minutes) and the decay phase (50-60 minutes) were compared with the pre-injection phase (−10-0 minutes). […]
# NAc Tac2+ neurons [2] = assay: Single-cell calcium imaging during cocaine-conditioned place preference; type: in vivo, mice; settings: post-conditioning
# Method: Next, the dynamics of Tac2 neuronal activity was analyzed during cocaine reward-contextual association. To this end, single-cell calcium imaging was applied to a cocaine-conditioned place preference (CPP) test (FIG. 3A). In the pre-conditioning session, mice were allowed to freely explore the two chambers with differential contextual patterns while calcium signal being recorded. In the conditioning sessions, mice were given alternate saline and cocaine (15 mg/kg) injections (6 hours apart) and were confined to a specific chamber paired with saline or cocaine. In the post-conditioning session, mice were again allowed to freely explore the two chambers while calcium signal being recorded (FIG. 3A). […] After extracting the calcium signal traces, and corresponding calcium signal transients of individual neurons in pre-conditioning and post-conditioning sessions, signal traces or transient frequencies were compared during the periods when mice are in saline-coupled chamber or cocaine-coupled chamber (staying time>5 seconds). […] To further validate these findings, calcium activity traces were analyzed when mice stayed in the saline chamber or cocaine chamber. […] Moreover, by focusing on the short period around the mice entering the cocaine chamber (−5 seconds to 5 seconds, regarding the entering as 0 second), it was determined that the neuronal activity of the cocaine chamber excited neurons (neurons with […] calcium signal in cocaine chamber) increased rapidly when mice entered the cocaine chamber, while the cocaine chamber inhibited neurons (neurons with […] calcium signal in cocaine chamber) decreased their activity when mice entered the cocaine chamber (FIGS. 3F-3G).
# Custom-made two-compartment CPP chambers (50×25×25 cm, L×D×H) were used with visual cues: the floor and the walls of one chamber were decorated with black horizontal stripes and the other chamber was decorated with yellow diagonal stripes. The modified cocaine-CPP consists of three sessions. […] The time spent in different chambers was recorded, the less preferred chamber was assigned as the cocaine chamber and used to condition cocaine injections, while the other chamber was assigned as the saline chamber and used to condition saline injections. […] Finally, the next day following conditioning, in the post-condition recording session, calcium activity of mice was again recorded while freely exploring the two chambers for 15 minutes. The mouse trajectories were recorded using a webcam (Logitech) with top view, and the time when the mice staying or entering chambers was analyzed using Etho Vision XT 11 (Noldus) and was also manually inspected. […]
# [3] = after administration; cited from earlier work
# [4] = system: hM3Dq-expressing Tac2+ neurons; assay: cFos induction after CNO, chemogenetic activation; type: in vivo, mice; settings: CNO 2 mg/kg i.p.
# Method: Mice were transcardially perfused with PBS followed by 4% paraformaldehyde. Brains were then placed in a 30% sucrose solution for 2 days. The brains were frozen in Optimal Cutting Temperature (OCT) embedding media and 16 μm (for FISH) or 40 μm (for IF) coronal sections were cut with a vibratome (Leica, no. CM3050 S). For FISH experiments, the slices were mounted on SuperFrost Plus slides, and air dried. The multi-color FISH experiments were performed following the instructions of RNAscope Fluorescent Multiplex Assay (ACD Bioscience). For IF, cryostat sections were collected and incubated overnight with blocking solution (1×PBS containing 5% goat serum, 2.5% BSA, and 0.1% Triton X-100), and then treated with the following primary antibodies, diluted with blocking solution, for 1 day at 4° C.: rabbit anti-cFos (1:2000, Synaptic systems, #226003), chicken anti-GFP (1:2000, Aves Labs, no. GFP-1010), and chicken anti-mCherry (1:2000, Novus Biologicals, no. NBP2-25158). Samples were then washed three times with washing buffer (1×PBS containing 0.1% Triton X-100) and incubated with the Alexa Fluor conjugated secondary antibodies for 2 h at room temperature. The sections were mounted and imaged using a Zeiss LSM800 confocal microscope or an Olympus VS120 Slide Scanning System. […]
# [5] = system: hM4Di-expressing Tac2+ neurons; assay: cFos induction after CNO following cocaine exposure, chemogenetic inhibition; type: in vivo, mice; settings: CNO 5 mg/kg i.p.
# [6] = system: hM3Dq-expressing Tac2+ neurons; assay: Cocaine-CPP with chemogenetic excitation of Tac2+ neurons; type: in vivo; settings: CNO 2 mg/kg plus cocaine 15 mg/kg; hM3Dq-expressing mice
# Method: (§1) To this end, a Cre-dependent AAV encoding a modified human M3 muscarinic receptor (hM3Dq) was introduced into NAc of Tac2-Cre mice (FIG. 5E). […] The cocaine-CPP test was then repeated, in which mice were conditioned with cocaine plus CNO in one chamber, while with saline in the other chamber. […] To test the effect of Tac2 neuronal inhibition on cocaine-CPP, a subthreshold cocaine CPP paradigm was applied, in which mice were conditioned with a lower dose of cocaine (10 mg/kg i.p.) in a shorter conditioning session (15-minutes per session)^10,46.
# (§2) A two-compartment CPP chamber was used with one compartment with grid rod style floor and the other with mesh style floor (Med Associates). Chamber size is 25×19×17 cm (L×D×H). Mice trajectories were tracked by infra-red photobeam detectors, and the travel distance and the duration the mice spent in the two compartments were recorded. […]
# (§3) For hM3Dq chemogenetics experiments, the Tac2-Cre mice were conditioned for two days to saline/saline injections in one chamber in the morning, and CNO (2 mg/kg)/cocaine (15 mg/kg) injection in the other in the afternoon (30 minutes confinement, 6 hours apart). […] The time spent in the cocaine-coupled chambers was recorded, and the CPP scores were calculated by subtracting the time spent in the pre-conditioning phase from the time spent in the post-conditioning phase.
# [7] = system: hM4Di-expressing Tac2+ neurons; assay: Subthreshold cocaine-CPP with chemogenetic inhibition of Tac2+ neurons; type: in vivo, mice; settings: CNO 5 mg/kg i.p.; cocaine 10 mg/kg i.p., 15-minutes sessions
# Method: as §1, §2, §3
# [8] = system: Tac2+ neurons (hM3Dq / hM4Di); assay: Basal and cocaine-induced locomotion with chemogenetic manipulation of Tac2+ neurons; type: in vivo; settings: CNO; hM3Dq or hM4Di mice; 1-hour post-treatment
# Method: The experiment was conducted in an 8-chamber activity monitor system (Med Associates). Each test chamber (ENV-510 boxes) consists of a 27 cm×27 cm square base and 24-cm walls. […] Activity Monitor software (Med Associates) was used to generate trajectory maps. The distance traveled in the arena, and time spent in the center part of the arena, were recorded and analyzed. After each test session, the chambers were cleaned thoroughly with 20% ethanol.
# The basal level of locomotion as well as cocaine-induced change of locomotor activity were assessed in the open field arena the same as the OFT. For chemogenetics experiments, 20 minutes after administration of either saline or CNO, mice were individually placed in the center of the test chamber, triggering the infra-red tracking system to record locomotor activity, as measured by the number of beam breaks. […] Different groups of mice were balanced across the 8 chambers to avoid potential environmental bias.
# [9] = system: hM3Dq-expressing Tac2+ neurons; assay: Cocaine intravenous self-administration (cocaine-IVSA) with chemogenetic excitation; settings: CNO 2 mg/kg
# [10] = system: hM4Di-expressing Tac2+ neurons; assay: Cocaine intravenous self-administration (cocaine-IVSA) with chemogenetic inhibition; settings: CNO 5 mg/kg
# Tac2 mRNA = assay: Cocaine-CPP after shRNA knock-down of Tac2 in NAc; type: in vivo, mice; settings: AAV Tac2 shRNA vs control shRNA, bilateral NAc injection
# Method: Numbers were calculated by summating Tac2^+ cells in serial 3 slides of the NAc region of individual mice (˜Bregma+1.2). […] Mice were subjected to 2-days conditioning, with each morning given saline injection followed by confined to saline-coupled chamber for 30 minutes, and in the afternoon, mice were given cocaine injection followed by confined to cocaine chamber for 30 minutes. Left: time spent in the cocaine-paired chambers pre- and post-conditioning, ****, p<0.0001, paired t-test. Right: the CPP scores were calculated by subtracting the time spent in pre-conditioning phase from the time spent in post-conditioning phase, ns, p=0.0975, unpaired t-test. […] FIGS. 10G-10I show dose-dependent response under cocaine-IVSA of Tac2 knockdown mice. The numbers of lever presses (FIG. 10G). Lever accuracy (FIG. 10H), and numbers of infusions (FIG. 10I) are shown. Data in FIGS. 10B-10I are presented as mean±SEM.
# Using calcium recording and neuronal activity manipulation, a causal relationship has been established between Tac2 neuronal activity and cocaine-associated behaviors (CPP and IVSA). It was then explored how Tac2^+ neurons might execute their functions. […]
# Small hairpin RNA (shRNA) for mouse Tac2 gene (NM_009312.2) were selected based on previous studies^50. […] The AAV viruses were injected into NAc regions and knock-down efficiency were evaluated by Tac2 RNA FISH.
# [11] = decay phase 50-60 minutes, calcium transient frequency
# [12] = initial phase 0-10 minutes, calcium transient frequency, 356 neurons, 6 mice
molecule,measurement,setting,value
COC(=O)[C@H]1[C@@H](OC(=O)c2ccccc2)C[C@@H]2CC[C@H]1N2C [cocaine],initial phase cocaine excited neurons still excited in the decay phase,NAc Tac2+ neurons [1]; 29/49 neurons,59.2%
same,initial phase cocaine inhibited neurons still inhibited in the decay phase,NAc Tac2+ neurons [1]; 30/117 neurons,25.6%
same,recorded Tac2+ neurons showing decreased activity,NAc Tac2+ neurons [1]; [11],14.9%
same,recorded Tac2+ neurons showing increased activity,NAc Tac2+ neurons [1]; [11],11.5%
same,recorded Tac2+ neurons showing decreased activity,NAc Tac2+ neurons [1]; [12],32.9%
same,recorded Tac2+ neurons showing increased activity,NAc Tac2+ neurons [1]; [12],13.8%
same,cocaine inhibited neurons compared to cocaine excited neurons,"NAc Tac2+ neurons [1]; initial phase, calcium activity traces",3.0 fold
same,Tac2+ neurons inhibited by cocaine compared to those excited,"NAc Tac2+ neurons [1]; initial phase, calcium transient frequency",2.4 fold
same,neurons excited in the cocaine chamber,"NAc Tac2+ neurons [2]; calcium activity traces, 40 of 370",10.8%
same,neurons inhibited in the cocaine chamber,"NAc Tac2+ neurons [2]; calcium activity traces, 59 of 370",16.0%
same,Tac2+ neurons with elevated activity in the cocaine chamber,"NAc Tac2+ neurons [2]; calcium transient frequency, 16 of 370",4.3%
same,Tac2+ neurons with reduced activity in the cocaine chamber,"NAc Tac2+ neurons [2]; calcium transient frequency, 62 of 370",16.8%
same,decay of cocaine levels in brain and plasma,[3],decay one hour later
same,time to peak of cocaine levels in brain and plasma,[3],≤ 10 min
"C[N+]1([O-])CCN(C2=Nc3cc(Cl)ccc3Nc3ccccc32)CC1 [CNO, clozapine-N-oxide]",cFos induction in hM3Dq-expressing neurons,[4],resulted in cFos induction
same,cFos induction in mCherry-expressing (control) neurons,[4],not in the mCherry-expressing neurons
same,cFos induction in hM4Di-expressing neurons following cocaine exposure,[5],significantly decreased
same,cocaine-induced CPP,[6],completely abolished
same,cocaine CPP in hM4Di-expressing vs mCherry-expressing mice,[7],significantly higher
same,basal locomotion,[8],affected neither basal locomotion
same,cocaine-induced hyperlocomotion,[8],nor cocaine-induced hyperlocomotion
same,"cocaine infusions, hM3Dq vs mCherry group",[9],fewer cocaine infusions
same,"lever accuracy, hM3Dq vs mCherry group",[9]; 0.33 mg/kg/infusion,reduced lever accuracy
same,"lever presses, hM3Dq vs mCherry group","[9]; cocaine 0.03, 0.1, 0.3, 1 mg/kg/infusion",significantly fewer lever presses
same,"cocaine infusions, hM4Di vs mCherry group",[10],significantly lower number of cocaine infusions
same,"lever presses, hM4Di vs mCherry group",[10],significantly higher number of lever presses
same,"lever accuracy, hM4Di vs mCherry group",[10]; 0.33 mg/kg/infusion,comparable lever accuracy
B1,cocaine-induced place preference,Tac2 mRNA,neither affected
